# Assay results taken from US20130059787A1, “METHODS OF USING HUMAN PROTEIN KINASE C DELTA VIII AS A BIOMARKER” (UNITED STATES DEPARTMENT OF VETERAN AFFAIRS, priority 2010, published 2013).
# Tests used:
# [1] = test system: 5′ splice site II on PKCδ exon 10; assay: Mutated pSPL3_PKCδ** minigene (SC35 cis-element mutated) in NT2 cells, RT-PCR; format: cell-based, human; conditions: RA about 10 μM, about 24 h
# From the text: FIG. 11 is a series of images depicting mutation of putative SC35 binding site inhibits RA-mediated utilization of 5′ splice site II utilization on the minigene. (a) schematic of the position and sequence of the putative SC35 cis-element on the pSPL3_PKCδ splicing minigene. Arrows indicate the position of primers used in PCR analysis. Putative SC35 binding site ggccaaag (SEQ ID No: 17) was mutated to tagcccaga (SEQ ID No: 18) on the minigene. (b) resulting mutated minigene pSPL3_PKCδ** was transfected into NT2 cells. In separate wells, the mutated minigene pSPL3_PKCδ** was co-transfected with either about 2 μg of SC35 or SF2/ASF. The original pSPL3_PKCδ splicing minigene was also transfected in a separate well. After overnight transfection, NT2 cells were treated with or without about 10 μM RA for about 24 h. Total RNA was extracted and RT-PCR performed using primers for PKCδ exon 10 sense and SA antisense as shown. About 5% of the products were separated by PAGE and silver stained for visualization. SSI: usage of 5′ splice site I; SSII: usage of 5′ splice site II. Graph represents percent exon inclusion calculated as SS II/(SS II+SSI)×100 and is representative of three experiments performed separately. […]
# [2] = test system: 5′ splice site II of PKCδ exon 10; assay: pSPL3_PKCδ splicing minigene in NT2 cells, RT-PCR; format: cell-based, human; conditions: RA about 10 μM, 24 h
# Method: (a) schematic represents PKCδ pre-mRNA exon 10 and flanking introns cloned into pSPL3 splicing vector between the SD and SA exons. The resulting minigene is referred to as pSPL3_PKCδ minigene. Arrows indicate position of primers used in RT-PCR analysis. (b) pSPL3_PKCδ minigene and pSPL3 empty vector were transfected overnight, and then the cells were treated with or without about 10 μM RA for about 24 h. Total RNA was extracted and RT-PCR performed using primers as described above. Expected products are SD-SA: constitutive splicing; SSI: usage of 5′ splice site I; SSII: usage of 5′ splice site II. (c) About 2 μg of SC35 or SF2/ASF was co-transfected along with the pSPL3_PKCδ splicing minigene. […] Graphs represent percent exon inclusion calculated as SS II/(SS II+SSI)×100 in the samples and are representative of four experiments performed separately. […]
# Splicing minigenes are advantageous to identify cis-elements on the pre-mRNA involved in regulated alternative splicing. […] Since the human PKCδ splice variants used alternative 5′ splice sites as determined previously, exon 10 of PKCδ pre-mRNA along with its flanking 3′ and 5′ intronic sequences was cloned (as described under “Experimental Procedures”) in the multiple cloning site (MCS) between the splice donor (SD) and splice acceptor (SA) exons of pSPL3, a vector developed to study splicing events (schematic shown in FIG. 10a). […]
smiles,measurement,setting,value
"CC1=C(/C=C/C(C)=C/C=C/C(C)=C/C(=O)O)C(C)(C)CCC1 [RA, all-trans-retinoic acid]",selection of 5′ splice site II on PKCδ exon 10 in pSPL3_PKCδ**-mutated minigene,[1],did not promote
same,utilization of 5′ splice site II of PKCδ exon 10 in pSPL3_PKCδ minigene,[2],increased utilization
